The test system of series [1] is mice. Kind of series: Elevated plus-maze test (EPM). The format is in vivo, mouse. As to conditions: 60 min before the test. On the procedure: The experiments were carried out, in the Experimental Medicine Center of Medical University of Lublin, on six-week-old naive male Swiss mice, weighing 24–30 g. The mice were housed in cages, five individuals per cage in an environmentally controlled rooms (ambient temperature 22 ± 1 °C; relative humidity 50–60%; 12 h light/dark cycle, lights on at 8:00). Standard laboratory food(LSM-Agropol-Motycz, Lublin, Poland) and filtered water were available ad libitum. All the experimental procedures were carried out, according to the National Institute of Health Guidelines for the Care and Use of Laboratory Animals and to the European Community Council Directive for the Care and Use of Laboratory Animals of 22 September 2010 (2010/63/EU) and approved by the Local Ethics Committee for Animal Experimentation in Lublin. The investigated compounds (Norbo-4, Norbo-8, Norbo-10, Norbo-14, Norbo-18 and Norbo-20) in all tests were administered intraperitoneally (i.p.), dissolved in dimethyl sulfoxide (DMSO, final concentration of 0.1%) and then diluted by aqueous solution of 0.5% methylcellulose (tylose) and injected 60 min before the tests. […] All compounds were given in a volume of 10 mL/kg to mice. The control animals received an equivalent volume of the solvent at the respective time before the tests. All the experiments were conducted in the light phase between 09.00 a.m. and 14.00 p.m. The experiments were performed by an observer unaware of the treatment administered. The EPM studies were carried out on mice according to the method of Lister. The EPM apparatus was made of plexiglass and consisted of two open (30 × 5 cm) and two enclosed (30 × 5 × 15 cm) arms. The arms extended from a central platform of 5 × 5 cm. The apparatus was mounted on a plexiglass base, raising it 38.5 cm above the floor, and illuminated by a red light. The test consisted of placing a mouse in the center of the apparatus (facing an open arm) and allowing it to freely explore. The number of entries into the open arms and the time spent in these arms were scored for a 5 min test period. An entry was defined as placing all four paws within the boundaries of the arm. The following measures were obtained from the test: the total number of arm entries; the percentage of arm entries into the open arms; and the time spent in the open arms expressed as a percentage of the time spent in both the open and closed arms. Anxiolytic activity was indicated by increases in the time spent in open arms and in the number of open arm entries. The total number of entries into either type of arm was used additionally as a measure of overall motor activity.

For series [2], the system named is mice. As to the kind of experiment: Rota-rod test (motor coordination). The format is in vivo, mouse. As to conditions: 30 mg/kg i.p., 60 min before the test. On the procedure:
(§1) The experiments were carried out, in the Experimental Medicine Center of Medical University of Lublin, on six-week-old naive male Swiss mice, weighing 24–30 g. The mice were housed in cages, five individuals per cage in an environmentally controlled rooms (ambient temperature 22 ± 1 °C; relative humidity 50–60%; 12 h light/dark cycle, lights on at 8:00). Standard laboratory food(LSM-Agropol-Motycz, Lublin, Poland) and filtered water were available ad libitum. All the experimental procedures were carried out, according to the National Institute of Health Guidelines for the Care and Use of Laboratory Animals and to the European Community Council Directive for the Care and Use of Laboratory Animals of 22 September 2010 (2010/63/EU) and approved by the Local Ethics Committee for Animal Experimentation in Lublin. The investigated compounds (Norbo-4, Norbo-8, Norbo-10, Norbo-14, Norbo-18 and Norbo-20) in all tests were administered intraperitoneally (i.p.), dissolved in dimethyl sulfoxide (DMSO, final concentration of 0.1%) and then diluted by aqueous solution of 0.5% methylcellulose (tylose) and injected 60 min before the tests. […] All compounds were given in a volume of 10 mL/kg to mice. The control animals received an equivalent volume of the solvent at the respective time before the tests. All the experiments were conducted in the light phase between 09.00 a.m. and 14.00 p.m. The experiments were performed by an observer unaware of the treatment administered. The effects of investigated compounds on motor coordination were evaluated in the rota-rod and chimney tests. In the first test, motor impairments were measured, defined as the inability to keep balance on a rotating rod (at constant speed of 18 rpm) for 1 min. In the second test, motor impairments were assessed by mouse inability to climb up the tube backwards (3 cm in inner diameter, 25 cm long) within 60 s. Before the tests, the animals were trained once a day for 3 days. The animals able to stay on the rotating rod or to leave the chimney for 60 s were approved for experiments.

Series [3] concerns the target T1, D2 receptor (Rattus norvegicus, UniProt P61169).
T1 construct: 15μg/mL of striatal homogenate was incubated in triplicate; from tissue; host or cells: rat striatum homogenate
Kind of series: Functional D2 receptor [35S]GTPγS assay (antagonist mode vs dopamine; basal for agonism).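 Note: [35S]GTPγS binding counted by scintillation after 60 min at 30 °C, nonspecific binding defined with 100 µM unlabeled GTPγS, inhibition curves fitted by one-site nonlinear regression.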 The settings on record: against 40 µM dopamine, rat striatal homogenate; read-out: D2 receptor antagonistic activity IC50 (95% CI). It counts as biochemical.

Series [4] has as its system mice. As to the kind of experiment: Spontaneous locomotor activity. It counts as in vivo, mouse.
Series [5] deals with mice. As to the kind of experiment: Chimney test (motor coordination). The format is in vivo, mouse. As to conditions: 60 min before the test. On the procedure: as §1
Series [6] addresses T2, 5-HT1A receptor (Rattus norvegicus, UniProt P19327).
T2 construct: 15 μg/mL of hippocampus homogenate was incubated in triplicate with 0.8 nM; from tissue; host or cells: rat hippocampus homogenate
T2 sequence (P19327 1-422): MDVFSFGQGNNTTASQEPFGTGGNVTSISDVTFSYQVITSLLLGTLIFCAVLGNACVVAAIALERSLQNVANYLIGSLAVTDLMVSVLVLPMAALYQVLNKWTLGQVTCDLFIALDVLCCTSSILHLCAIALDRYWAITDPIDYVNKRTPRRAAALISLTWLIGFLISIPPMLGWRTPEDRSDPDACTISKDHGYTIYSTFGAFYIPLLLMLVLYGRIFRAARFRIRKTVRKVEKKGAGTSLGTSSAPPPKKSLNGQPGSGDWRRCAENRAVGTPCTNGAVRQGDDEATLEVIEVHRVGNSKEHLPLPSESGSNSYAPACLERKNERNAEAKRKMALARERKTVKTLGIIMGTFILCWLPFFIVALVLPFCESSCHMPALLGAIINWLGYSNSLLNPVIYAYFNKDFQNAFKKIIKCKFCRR
As to the kind of experiment: Functional 5-HT1A receptor [35S]GTPγS assay (agonist mode).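 Note: male Sprague-Dawley rat hippocampal membranes incubated 90 min at 37 °C, bound label counted by scintillation after filtration, non-specific binding defined with 100 µM unlabeled GTPγS, one-site curve fit.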 The format is biochemical. As to conditions: [35S]GTPγS, rat hippocampus homogenate.

Entries after “also recorded” stand apart in the source; their conditions may differ.

T1 sequence (P61169 whole entry): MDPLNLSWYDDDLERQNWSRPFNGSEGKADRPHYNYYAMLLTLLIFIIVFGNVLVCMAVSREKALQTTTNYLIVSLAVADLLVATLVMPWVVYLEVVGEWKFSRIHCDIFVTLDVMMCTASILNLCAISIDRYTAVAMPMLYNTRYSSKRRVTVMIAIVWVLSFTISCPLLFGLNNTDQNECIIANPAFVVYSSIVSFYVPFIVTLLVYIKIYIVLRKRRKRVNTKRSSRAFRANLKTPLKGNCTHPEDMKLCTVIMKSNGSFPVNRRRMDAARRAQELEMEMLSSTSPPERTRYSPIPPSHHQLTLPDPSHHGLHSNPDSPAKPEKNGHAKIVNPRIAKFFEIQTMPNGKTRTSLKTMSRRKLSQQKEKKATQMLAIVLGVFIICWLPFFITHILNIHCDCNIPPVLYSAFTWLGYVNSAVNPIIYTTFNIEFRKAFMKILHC

With `Cc1cccc(N2CCN(CCCNC(=O)C3CC4C=CC3C4)CC2)c1C` (stereo not drawn) [Norbo-4, endo-N-(3-(4-(2,3-dimethylphenyl)piperazin-1-yl)propyl)bicyclo[2.2.1]hept-5-ene-2-carboxamide], the “percentage of time spent in open arms (EPM)” value in series [1] (3.75 mg/kg i.p.) and in series [1] (15 mg/kg i.p.) was “significant increase in time spent in open arms; also recorded: increased the percentage of open arm exploration time” each time. Further, the “percentage of the open arm entries (EPM)” value in series [1] (15 mg/kg i.p.) was “increase the percentage of open arm entries”. Besides, the time on rota-rod entry in series [2] is recorded as “decreased also time on rota-rod; also recorded: impaired motor coordination”. In series [3], the IC50 came out at 33.1 µM. In addition, the spontaneous locomotor activity result is “significant decrease in locomotor activity; also recorded: induced the same effect” in series [4] (15 mg/kg i.p., after 6 min of observation); “significant decrease in locomotor activity; also recorded: induced the same effect” in series [4] (15 mg/kg i.p., after 20 min of observation); “significant decrease in locomotor activity” in series [4] (30 mg/kg i.p., after 6 min of observation); “significant decrease in locomotor activity” in series [4] (30 mg/kg i.p., after 20 min of observation). In addition, the time in chimney entry in series [5] (15 mg/kg i.p.) was “significant increase of time in chimney”; in series [5] (30 mg/kg i.p.), “significant increase of time in chimney; also recorded: disturbed the behavior of mice”. For the same compound, in series [6], the “5-HT1A Receptor G-Protein Stimulation Emax (%) ± SEM” value came to 181 ± 2.4 %. For the same compound, the EC50 in series [6] (read-out: 5-HT1A Receptor G-Protein Stimulation EC50 (95% CI)) was 0.181 µM.
